{
  "source": "patent US4486429A",
  "about": "“Amino derivatives of 4-phenyl 4-oxobuten-2-oic acid, pharmaceutical compositions containing them, and methods for preparing and therapeutically using them” (Roussel Uclaf, priority 1981, dated 1984)",
  "key": {"gastric secretions": {"system": "gastric secretions", "experiment": "Determination of the anti-gastric secretion activity (Shay technique, pylorus ligation, rats)", "assay_type": "in vivo", "conditions": "pylorus ligated, dose 10 mg/kg, intraduodenal, 3 hours, total acidity of gastric juice", "method": "(1) Determination of the anti-gastric secretion activity\nThe technique used is described by H. SHAY et al. in Gastroenterology 5, 43, 1945.\nMale rats were used having a weight of about 200 g each (10 animals per lot), and kept without food for 48 hours but enjoying ad libitum 8% glucose solution. After the rats were slightly anesthetized with ether the pylorus of each was ligated. At the end of the operation, the product to be tested was administered intraduodenally in different doses or, for the control animals 0.5% carboxymethyl cellulose solution was administered, whereupon the abdominal incision is sutured.\nThree hours later, the animals were sacrificed and their stomachs removed after ligating the esophagus. The gastric juice was removed and centrifuged. The volume of gastric juice obtained was then measured and the total acidity of the gastric juice was determined by titrating a […] of gastric juice to a pH of 7 by means of 1/10 N aqueous sodium hydroxide solution.\nThe percentages of variation in total acidity of the gastric secretions between control and test animals were calculated."}, "stomach ulcers": {"system": "stomach ulcers", "experiment": "Determination of the anti-ulcer activity (stress ulcer, rats)", "assay_type": "in vivo", "conditions": "female rats, stress and cold (8° C., two hours), dose 10 mg/kg by esophageal tube two hours before", "method": "(2) Determination of the anti-ulcer activity\nThe technique consists in inducing stomach ulcers by stress in rats (stress and cold). The technique used is described by E. C. SENAY and R. J. LEVINE, Proc. Soc. Exp. Biol. 124, 1221 (1967).\nFemale rats weighing about 150 g (5 animals per lot) which have fasted for 48 hours with water ad libitum and glucose solution for 8 hours were used. By an esophageal tube, the animals were administered the test compound, or a solution of 0.5% carboxymethyl cellulose solution for the control animals. Two hours later, the animals were bundled in a jacket of netting. Their paws were bound and the entire unit was placed in a refrigerator at 8° C. for two hours. The rats were released and killed with ether.\nTheir stomachs were removed, opened along the greater curvature and examined by binocular magnifier. The seriousness of ulceration was clasified from 0 to 3 for each stomach.\nFor each lot of rats the average intensity of the ulcerations was calculated. The degree of ulceration for control and test animals was determined and the variation expressed in percentage."}, "[1]": {"experiment": "Determination of the acute toxicity (LD50, oral, mice)", "conditions": "mouse, in vivo, oral administration", "method": "(3) Determination of the acute toxicity\nThe LD50 was evaluated after oral administration of the product to mice."}},
  "data": [
    {"smiles": "CCOC(=O)Nc1ccc(C(=O)/C=C/C(=O)O)cc1", "note": "[Example 1, (E) 4-(4-carbethoxyaminophenyl)-4-oxobuten-2-oic acid]", "values": [
      {"measurement": "Anti-secretion activity (% variation referred to the controls): Acid Concentration", "setting": "gastric secretions", "result": -55, "unit": "%"},
      {"measurement": "Anti-ulcer activity (% variation referred to the controls): Ulceration", "setting": "stomach ulcers", "result": -41, "unit": "%"},
      {"measurement": "LD50", "setting": "[1]", "result": "> 1000", "unit": "mg/kg"}
    ]},
    {"smiles": "CN(C)c1ccc(C(=O)/C=C/C(=O)O)cc1", "note": "[Example 4, (E) 4-(4-N,N-dimethylaminophenyl) 4-oxobuten-2-oic acid]", "values": [
      {"measurement": "Anti-secretion activity (% variation referred to the controls): Acid Concentration", "setting": "gastric secretions", "result": -58, "unit": "%"},
      {"measurement": "Anti-ulcer activity (% variation referred to the controls): Ulceration", "setting": "stomach ulcers", "result": -61, "unit": "%"},
      {"measurement": "LD50", "setting": "[1]", "result": 750, "unit": "mg/kg"}
    ]}
  ]
}
